Data from patent publication US20220324815A1, “2-PHENOXY-PYRIMIDINE DERIVATIVES AS HERBICIDAL COMPOUNDS” (SYNGENTA CROP PROTECTION AG, priority 2019, published 2022).

What was measured:
Type in all cases: in vivo
Settings in all cases: 250 g/ha unless otherwise stated, evaluated after 13 days, five-point scale
Setaria faberi (SETFA) [1] = assay: Test 1 glasshouse herbicide test, post-emergence application (Table B1)
Experimental: (§1) Seeds of a variety of test species are sown in standard soil in pots (Lolium perenne (LOLPE), Solanum nigrum (SOLNI), Amaranthus retoflexus (AMARE), Setaria faberi (SETFA), Echinochloa crus-galli (ECHCG) and Ipomoea hederacea (IPOHE)). After cultivation for one day (pre-emergence) or after 8 days cultivation (post-emergence) under controlled conditions in a glasshouse (at 24/16° C., day/night; 14 hours light; 65% humidity), the plants are sprayed with an aqueous spray solution derived from the formulation of the technical active ingredient in acetone/water (50:50) solution containing 0.5% Tween 20 (polyoxyethelyene sorbitan monolaurate, CAS RN 9005-64-5). Compounds are applied at 250 g/ha unless otherwise stated. The test plants are then grown in a glasshouse under controlled conditions in a glasshouse (at 24/16° C., day/night; 14 hours light; 65% humidity) and watered twice daily. After 13 days for pre and post-emergence, the test is evaluated for the percentage damage caused to the plant. The biological activities (% phytotoxicity) are shown in Tables B1 and B2 below using a five-point scale (5=81 to 100%; 4=61 to 80%; 3=41 to 60%; 2=21 to 40%; 1=0 to 20%).

[2] = tested on: Amaranthus retoflexus (AMARE); assay: as above
Experimental: as §1

[3] = tested on: Echinochloa crus-galli (ECHCG); assay: as above
Experimental: as §1

[4] = tested on: Ipomoea hederacea (IPOHE); assay: as above
Experimental: as §1

Setaria faberi (SETFA) [5] = assay: Test 1 glasshouse herbicide test, pre-emergence application (Table B2)
Experimental: as §1

[6] = tested on: Amaranthus retoflexus (AMARE); assay: as above
Experimental: as §1

[7] = tested on: Echinochloa crus-galli (ECHCG); assay: as above
Experimental: as §1

[8] = tested on: Ipomoea hederacea (IPOHE); assay: as above
Experimental: as §1

Row | SMILES | % phytotoxicity SETFA, post-emergence application (Setaria faberi (SETFA) [1]) | % phytotoxicity AMARE, post-emergence application [2] | % phytotoxicity ECHCG, post-emergence application [3] | % phytotoxicity IPOHE, post-emergence application [4] | % phytotoxicity SETFA, pre-emergence application (Setaria faberi (SETFA) [5]) | % phytotoxicity AMARE, pre-emergence application [6] | % phytotoxicity ECHCG, pre-emergence application [7] | % phytotoxicity IPOHE, pre-emergence application [8]
1 | COCCCSc1ccccc1Oc1ncc(Cl)cn1 [Compound A56] | 1 (1=0 to 20%) | 2 (2=21 to 40%) | 1 (1=0 to 20%) | 1 (1=0 to 20%) | 2 (2=21 to 40%) | 2 (2=21 to 40%) | 1 (1=0 to 20%) | 2 (2=21 to 40%)
2 | Clc1cnc(Oc2ccccc2SCCn2cc(Cl)cn2)nc1 [Compound A57] | 4 (4=61 to 80%) | 5 (5=81 to 100%) | 4 (4=61 to 80%) | 2 (2=21 to 40%) | 4 (4=61 to 80%) | 4 (4=61 to 80%) | 3 (3=41 to 60%) | 1 (1=0 to 20%)
3 | FCCCSc1ccccc1Oc1ncc(Cl)cn1 [Compound A59] | 2 (2=21 to 40%) | 5 (5=81 to 100%) | 4 (4=61 to 80%) | 2 (2=21 to 40%) | 4 (4=61 to 80%) | 5 (5=81 to 100%) | 5 (5=81 to 100%) | 2 (2=21 to 40%)
4 | FCCSc1ccccc1Oc1ncc(Cl)cn1 [Compound A60] | 1 (1=0 to 20%) | 3 (3=41 to 60%) | 1 (1=0 to 20%) | 2 (2=21 to 40%) | 3 (3=41 to 60%) | 4 (4=61 to 80%) | 2 (2=21 to 40%) | 1 (1=0 to 20%)
5 | FC(F)CSc1ccccc1Oc1ncc(Cl)cn1 [Compound A61] | 2 (2=21 to 40%) | 5 (5=81 to 100%) | 2 (2=21 to 40%) | 2 (2=21 to 40%) | 4 (4=61 to 80%) | 5 (5=81 to 100%) | 3 (3=41 to 60%) | 2 (2=21 to 40%)
6 | C=C(C)CSc1ccccc1Oc1ncc(Cl)cn1 [Compound A62] | 3 (3=41 to 60%) | 1 (1=0 to 20%) | 4 (4=61 to 80%) | 1 (1=0 to 20%) | 3 (3=41 to 60%) | 1 (1=0 to 20%) | 3 (3=41 to 60%) | 1 (1=0 to 20%)
7 | CCC(CC)CSc1ccccc1Oc1ncc(Cl)cn1 [Compound A64] | 2 (2=21 to 40%) | 2 (2=21 to 40%) | 1 (1=0 to 20%) | 2 (2=21 to 40%) | 1 (1=0 to 20%) | 1 (1=0 to 20%) | 1 (1=0 to 20%) | 1 (1=0 to 20%)
8 | Clc1cnc(Oc2ccccc2SCc2cccc(Cl)c2)nc1 [Compound A66] | 3 (3=41 to 60%) | 4 (4=61 to 80%) | 4 (4=61 to 80%) | 2 (2=21 to 40%) | 2 (2=21 to 40%) | 1 (1=0 to 20%) | 2 (2=21 to 40%) | 1 (1=0 to 20%)
9 | FC(F)=C(F)CCSc1ccccc1Oc1ncc(Cl)cn1 [Compound A68] | 4 (4=61 to 80%) | 5 (5=81 to 100%) | 5 (5=81 to 100%) | 5 (5=81 to 100%) | 5 (5=81 to 100%) | 5 (5=81 to 100%) | 5 (5=81 to 100%) | 4 (4=61 to 80%)
10 | CC(C)CCSc1ccccc1Oc1ncc(Cl)cn1 [Compound A70] | 4 (4=61 to 80%) | 2 (2=21 to 40%) | 5 (5=81 to 100%) | 4 (4=61 to 80%) | 5 (5=81 to 100%) | 2 (2=21 to 40%) | 5 (5=81 to 100%) | 1 (1=0 to 20%)
11 | C=CCCSc1ccccc1Oc1ncc(Cl)cn1 [Compound A71] | 3 (3=41 to 60%) | 5 (5=81 to 100%) | 4 (4=61 to 80%) | 4 (4=61 to 80%) | 5 (5=81 to 100%) | 5 (5=81 to 100%) | 5 (5=81 to 100%) | 1 (1=0 to 20%)
12 | CC(C)CSc1ccccc1Oc1ncc(Cl)cn1 [Compound A72] | 2 (2=21 to 40%) | 3 (3=41 to 60%) | 3 (3=41 to 60%) | 2 (2=21 to 40%) | 4 (4=61 to 80%) | 4 (4=61 to 80%) | 4 (4=61 to 80%) | 1 (1=0 to 20%)
13 | O=S(=O)(CCC(F)=C(F)F)c1ccccc1Oc1ncc(Cl)cn1 [Compound A73] | 3 (3=41 to 60%) | 4 (4=61 to 80%) | 3 (3=41 to 60%) | 1 (1=0 to 20%) | 4 (4=61 to 80%) | 5 (5=81 to 100%) | 5 (5=81 to 100%) | 1 (1=0 to 20%)
14 | CC(C)CCS(=O)(=O)c1ccccc1Oc1ncc(Cl)cn1 [Compound A75] | 2 (2=21 to 40%) | 2 (2=21 to 40%) | 3 (3=41 to 60%) | 2 (2=21 to 40%) | 4 (4=61 to 80%) | 5 (5=81 to 100%) | 4 (4=61 to 80%) | 1 (1=0 to 20%)
